Consider one compound from patent publication US11318113B2, “Compounds for the treatment of diseases linked to mitochondrial reactive oxygen species (ROS) production” (OP2 DRUGS, priority 2015, dated 2022).

Assay [1] deals with site IQ of complex I of the mitochondrial respiratory chain. The experiment in a line: Mitochondrial ROS/H2O2 production (Amplex Red/HRP), no complex inhibitor, ATR only. The following applies: glutamate+malate+succinate, ATR (state 4); AOL 5 to 80 μM. It counts as biochemical, rat. The method, then: (§1) Rates of ROS/H2O2 production from heart mitochondria were assessed through the oxidation of the colorless, non-fluorescent indicator Amplex Red in the presence of exogenous horseradish peroxidase (HRP, EC 1.11.1.7, Sigma). H2O2 reacts with Amplex Red in a 1:1 stoichiometry, yielding the fluorescent compound resorufin (excitation: 560 nm; emission: 585 nm) which is stable once formed. Fluorescence was measured continuously with a spectro-fluorometer equipped with temperature control and stirring (SAFAS Xenius, Monaco). Isolated mitochondria (0.1 mg/mL) were incubated in the same experimental buffer than previously, supplemented with 15 μM Amplex Red and 10 μg/mL HRP. Glutamate (5 mM)/malate (2.5 mM) together with succinate (5 mM) were used as complex I and complex II substrates, respectively. Experiments were conducted under non-phosphorylating conditions in the presence of 15 μM atractyloside, i.e. under state IV conditions where mitochondrial membrane […]. […]
(§2) FIG. 3 illustrates the effect of the presence of increasing concentrations of AOL (from 5 to 80 μM) on ROS/H2O2 production measured under the different conditions defined in FIG. 2. […]

Assay [2] has as its system other mitochondrial sites of ROS production (site IIIQO, site IF). The experiment in a line: Mitochondrial ROS/H2O2 production (Amplex Red/HRP) after rotenone, antimycin A, myxothiazol. The assay is classed as biochemical, rat. To be noted: AOL 5 to 80 μM. How it is done: as §1, §2
The test system of assay [3] is normoxic, chronic hypoxic and monocrotaline-treated rats. The experiment in a line: Pulmonary hypertension rat models (chronic hypoxia, monocrotaline). The assay is classed as in vivo. The method, then:
Male Wistar rats (300-400 g) were separated into 3 groups and used 4 weeks later: • the first group (control or normoxic rats—N rats) was housed in ambient room air; • the second group (chronic hypoxic rats—CH rats) was exposed to chronic hypoxia for 3 weeks in a hypobaric chamber (50 kPa), and • the third group (MCT rats) was injected with a single intraperitoneal dose of monocrotaline at a dose of 60 mg/kg. MCT (Sigma, St Quentin Fallavier, France) was dissolved in an equal volume of HCl ([…]) and NaOH ([…]).
In each group, some animals were treated with AOL (Sulfarlem, EG Labo Eurogenerics. Crushed tablets mixed with food, fed ad libitum) and some other animals were untreated. Eaten food was weighed every day to estimate the AOL dose administered. 10 mg/kg/day was thus administered during the 3 weeks of experiment for the second and third groups.
Pulmonary hypertension was assessed by measuring both the mean pulmonary arterial pressure (mPAP) and right ventricle hypertrophy. To measure PAP, N, CH and MCT rats were anesthetized with pentobarbital sodium (Centravet) by intraperitoneal injection (60 mg/kg) and mPAP was measured, in closed-chest rats, through a catheter inserted in the right jugular vein, then through the right atria and the right ventricle into the pulmonary artery, and attached to a Baxter Uniflow gauge pressure transducer.
Right ventricle hypertrophy was estimated by the ratio of right ventricle (RV) to left ventricle plus septum (LV+S) weight (Fulton index).
Pulmonary arteries (PA) remodeling was assessed by measuring the percentage of the PA medial thickness from sections of paraffin-embedded lung. Lung sections were first stained with hematoxylin and eosin (VWR) according to common histological procedure.

Another assay has as its system Sod2-KO mice. The experiment in a line: Sod2-KO mice: lifespan, heart SDH activity, liver Oil Red O staining. The assay is classed as in vivo, mouse. An excerpt: Mice deficient in mitochondrial Mn-Superoxide Dismutase (Sod2-KO) on a CD1-background were used. This genetic alteration leads to an adverse phenotype and the death of animals at an average of 8 days old. Mitochondrial superoxide dismutase is a free radical scavenging enzyme which transforms superoxide (highly reactive) into hydrogen peroxide (less reactive), that could then cross mitochondrial membranes and be detoxified by matrix and cytosolic anti-oxidant systems. The aim of this study was to test if AOL could rescue the Sod2-KO phenotype through its activity on IQ superoxide production.
After birth, pups were genotyped (3 day-old) and the litter size was reduced to 6 pups per cage. Animals were then treated (AOL in Kolliphor®—5 mg/kg) or not (Kolliphor® only, noted KOL below). […] Two studies were conducted on two different generations from the same parents: lifespan; and succinate dehydrogenase activity in heart (SDH) and Oil Red O staining in liver. Animals were weighed and injected (intraperitoneal) daily.
Succinate dehydrogenase activity is a marker of superoxide in the mitochondrial matrix. Thus, a lack of SOD2 is associated with a decrease of SDH activity in heart. The aim of this experiment was to test whether or not AOL could restore SDH activity in KO mice.
However, the direct link between superoxide/hydrogen peroxide production and liver lipid accumulation is not established. The aim of the study was to test the potency of AOL to prevent liver lipid accumulation in Sod2-KO mice.
Animals were injected once a day from 3 days old until their death.
In this study, animals were treated daily (5 mg/kg) from day 3 to day 5. Heart and liver were harvested at day 6.

Regarding `COc1ccc(-c2cc(=S)ss2)cc1` [AOL, 5-(4-methoxyphenyl)-3H-1,2-dithiole-3-thione], the “decrease of ROS/H2O2 production measured in the absence of inhibitor” value in assay [1] is “approximately 80%”. Also, in assay [2], the “ROS/H2O2 production under the other conditions” value is “no statistical differences were observed”. For the same compound, the “reduction of pulmonary arteries remodeling (printed: pulmonary arteries diameter)” value in assay [3] (CH rats, oral 10 mg/kg/day) is about 30%. Besides, the “mean pulmonary arterial pressure (mPAP)” value in assay [3] (CH rats, oral 10 mg/kg/day, 3 weeks) is given as “even more significantly”. Moreover, the “mean pulmonary arterial pressure (mPAP)” value in assay [3] (MCT rats, oral 10 mg/kg/day, 3 weeks) was “decreased”. Also, the “mean pulmonary arterial pressure (mPAP)” value in assay [3] (normoxic (N) rats) is “no significant effect”. For the same compound, the “Fulton index (right ventricular hypertrophy)” value in assay [3] (oral 10 mg/kg/day) is “no effect”. Moreover, in the assay on Sod2-KO mice (5 mg/kg daily day 3 to day 5), the “liver lipid droplets density (Oil Red O)” value is given as “decreased” and the “liver total lipid area (Oil Red O)” value is recorded as “able to restore”. Also, the “SDH activity in heart” value in the assay with Sod2-KO mice (5 mg/kg daily day 3 to day 5, not restored to WT levels) is recorded as “very slight increase”. Also, in the assay with Sod2-KO mice (5 mg/kg ip daily), the “lifespan extension as compared to untreated mice” value was “up to 2 days”; the “median lifespan and maximal lifespan” value is recorded as “slightly improved”. The “lower body weight and body weight gain of KO mice” value in the assay on Sod2-KO mice (5 mg/kg ip daily, day 8 to 12) is “tends to alleviate”.
